Patent publication US5922580A, “Non-reducing saccharide-forming enzyme, its preparation and uses” (priority 1992, dated 1999)
Blank lines part the entries; values can stand above or below the compound they belong to.

Key:
[1] = molecular target: T1, α-glucosidase specimen derived from rice (Oryza sativa subsp. japonica, UniProt Q653V7); experiment: Hydrolysis by α-glucosidase; format: biochemical; conditions: 50 mM acetate buffer pH 4.0, 37° C., 18 hours
T1 construct: purchased Sigma Chemical Company, St. Louis, USA; host or cells: rice
Method: (§1) The enzymatic reaction with the α-amylase was as follows: Dissolving 10 mg of a substrate in one ml of 50 mM phosphate buffer (pH 6.9), mixing the resultant solution with one unit of the α-amylase, and incubating the resultant mixture at 37° C. for 18 hours. The enzymatic reaction with the α-glucosidase was conducted under the same conditions as in the case of α-amylase except that 50 mM acetate buffer (pH 4.0) was used as a buffer. The enzymatic reaction with the rat intestinal acetone powder was carried out under the same conditions as in the case of α-amylase except that 50 mM maleate buffer (pH 6.0) was used as a buffer.

[2] = system: 7-week old dd-strain mice; experiment: Acute toxicity test, oral; format: in vivo; conditions: for Death of mice: oral, highest possible doses
glucoamylase = experiment: Enzymatic hydrolysis by glucoamylase; format: biochemical; conditions: for Glucose / Trehalose: 50 mg in 1 ml 50 mM acetate buffer pH 4.5, one unit glucoamylase, 40° C., 6 hours, HPLC; for Molecular ratio (Glucose/Trehalose): glucoamylase hydrolysate
Method: Fifty mg aliquots of non-reducing saccharides P I, P II, P III, P IV and P V in Experiment 4 were respectively dissolved in one ml of 50 mM acetate buffer (pH 4.5), admixed with one unit of glucoamylase commercialized by Seikagaku-Kogyo Co., Ltd., Tokyo, Japan, to effect enzymatic hydrolysis at 40° C. for 6 hours. The only saccharides detected in every resultant mixture on HPLC analysis were glucose and trehalose.

β-amylase = β-amylase (Glycine max, UniProt P10538); experiment: Hydrolysis by β-amylase; format: biochemical; conditions: similarly as with glucoamylase
[3] = Reducing power by Somogyi-Nelson's method expressed as DE; format: physicochemical; conditions: for DE: high-purity saccharide preparations of Experiment 4
Method: The reducing powders of these novel saccharides were determined on the Somogyi-Nelson's method and expressed by DE (dextrose equivalent).

[4] = molecular target: T2, α-amylase specimen derived from pig pancreas (Sus scrofa, UniProt P00690); experiment: Hydrolysis by α-amylase; format: biochemical; set-up: Saccharide composition of hydrolysate: P I / Saccharide composition of hydrolysate: P II / Saccharide composition of hydrolysate: G3 (maltotriose) / Saccharide composition of hydrolysate: G2 (maltose) / Saccharide composition of hydrolysate: G1 (glucose): unit not given here; conditions: for Hydrolysis by α-amylase: conclusion from Table 6; for Saccharide composition of hydrolysate: G1 (glucose) / Saccharide composition of hydrolysate: G2 (maltose) / Saccharide composition of hydrolysate: G3 (maltotriose) / Saccharide composition of hydrolysate: P I / Saccharide composition of hydrolysate: P II: α-amylase, 10 mg/ml, pH 6.9, 37° C., 18 hours, HPLC
T2 construct: purchased Sigma Chemical Company, St. Louis, USA; host or cells: pig pancreas
T2 sequence (P00690 16-511): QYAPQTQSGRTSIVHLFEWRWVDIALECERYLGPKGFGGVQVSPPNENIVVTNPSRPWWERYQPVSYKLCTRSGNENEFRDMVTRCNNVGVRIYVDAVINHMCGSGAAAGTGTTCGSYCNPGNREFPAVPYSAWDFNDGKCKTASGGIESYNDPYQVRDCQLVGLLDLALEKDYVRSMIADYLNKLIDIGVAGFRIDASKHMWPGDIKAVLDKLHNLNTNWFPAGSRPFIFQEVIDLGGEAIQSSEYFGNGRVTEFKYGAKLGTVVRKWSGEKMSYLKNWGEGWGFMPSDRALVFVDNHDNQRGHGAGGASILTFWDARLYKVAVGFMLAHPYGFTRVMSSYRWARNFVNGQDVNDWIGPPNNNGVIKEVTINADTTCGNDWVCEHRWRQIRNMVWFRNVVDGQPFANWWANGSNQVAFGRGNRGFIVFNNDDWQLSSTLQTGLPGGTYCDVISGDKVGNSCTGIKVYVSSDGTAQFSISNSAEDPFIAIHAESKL
Method: as §1

[5] = Maillard reaction with glycine; format: physicochemical; conditions: for Coloration degree (480 nm): 1% glycine, 10% saccharide, 50 mM phosphate buffer pH 7.0, 100° C. for 90 min, absorbance in 1-cm cell; for Coloration degree relative to corresponding material maltooligosaccharide: Maillard reaction, 480 nm
Method: As a control, maltotriose, maltotetraose, maltopentaose, maltohexaose and maltoheptaose as a material for the saccharide preparations were similarly treated as above, and measured their absorbances were measured at a wave length of 480 nm.

[6] = system: rat intestinal acetone powder; experiment: Hydrolysis by rat intestinal acetone powder; format: in vitro ADME; conditions: 50 mM maleate buffer pH 6.0, 37° C., 18 hours
Method: as §1

[7] = system: non-reducing saccharide-forming enzyme; format: biochemical, Rhizobium sp. M-11; conditions: for Percentage of newly-formed saccharide (P I to P V) in reaction product / Formation of novel saccharide from substrate: 20% substrate, 40° C., pH 7.0, 48 hours; for Percentage of newly-formed saccharide (P I to P V) in reaction product: 2 units per g substrate, HPLC; for Percentage of remaining substrate in reaction product: non-reducing saccharide-forming enzyme, 48 h, pH 7
Method: An aqueous solution containing 20% glucose, maltose, maltotriose, maltotetraose, maltopentaose, maltohexaose or maltoheptaose as a substrate was prepared, and mixed with 2 units per g substrate, d.s.b., of the purified enzyme preparation obtained in Experiment 2, and the resultant mixture was subjected to an enzymatic reaction at 40° C. and pH 7.0 for 48 hours. The reaction mixture was desalted and analyzed on high-performance liquid chromatography (HPLC) using "Wakobeads WB-T-330 column", a product of Wako Pure Chemical Industries Ltd., Tokyo, Japan. The HPLC procedure was conducted at an ambient temperature and a flow rate of 0.5 ml/min of water as an eluent, and "RI-8012", a differential refractometer commercialized by Tosho Corporation, Tokyo, Japan, was used for analyzing reaction products.

T1 sequence (Q653V7 34-885): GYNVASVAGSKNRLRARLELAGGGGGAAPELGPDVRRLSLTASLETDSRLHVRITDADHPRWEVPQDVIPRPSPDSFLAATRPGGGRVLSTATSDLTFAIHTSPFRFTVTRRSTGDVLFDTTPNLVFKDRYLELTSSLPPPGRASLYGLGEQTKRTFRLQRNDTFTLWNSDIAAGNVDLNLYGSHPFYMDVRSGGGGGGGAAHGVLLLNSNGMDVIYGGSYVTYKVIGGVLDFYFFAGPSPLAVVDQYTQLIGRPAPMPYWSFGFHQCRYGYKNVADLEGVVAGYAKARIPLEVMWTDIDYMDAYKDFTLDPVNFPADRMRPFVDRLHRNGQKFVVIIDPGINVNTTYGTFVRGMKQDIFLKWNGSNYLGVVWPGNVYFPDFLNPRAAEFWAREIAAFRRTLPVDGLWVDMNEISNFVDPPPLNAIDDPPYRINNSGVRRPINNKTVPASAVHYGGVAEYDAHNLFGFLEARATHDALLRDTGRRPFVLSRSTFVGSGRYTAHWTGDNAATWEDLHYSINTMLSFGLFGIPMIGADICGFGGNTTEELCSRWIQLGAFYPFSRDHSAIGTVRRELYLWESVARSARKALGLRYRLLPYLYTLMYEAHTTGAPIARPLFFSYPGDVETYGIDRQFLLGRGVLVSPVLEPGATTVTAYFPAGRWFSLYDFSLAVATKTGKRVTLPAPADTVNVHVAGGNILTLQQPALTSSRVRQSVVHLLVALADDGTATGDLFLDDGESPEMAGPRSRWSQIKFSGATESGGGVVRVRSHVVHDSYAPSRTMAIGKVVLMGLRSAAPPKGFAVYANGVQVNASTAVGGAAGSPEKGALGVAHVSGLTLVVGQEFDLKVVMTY
Chain of β-amylase (P10538 whole entry, species assumed): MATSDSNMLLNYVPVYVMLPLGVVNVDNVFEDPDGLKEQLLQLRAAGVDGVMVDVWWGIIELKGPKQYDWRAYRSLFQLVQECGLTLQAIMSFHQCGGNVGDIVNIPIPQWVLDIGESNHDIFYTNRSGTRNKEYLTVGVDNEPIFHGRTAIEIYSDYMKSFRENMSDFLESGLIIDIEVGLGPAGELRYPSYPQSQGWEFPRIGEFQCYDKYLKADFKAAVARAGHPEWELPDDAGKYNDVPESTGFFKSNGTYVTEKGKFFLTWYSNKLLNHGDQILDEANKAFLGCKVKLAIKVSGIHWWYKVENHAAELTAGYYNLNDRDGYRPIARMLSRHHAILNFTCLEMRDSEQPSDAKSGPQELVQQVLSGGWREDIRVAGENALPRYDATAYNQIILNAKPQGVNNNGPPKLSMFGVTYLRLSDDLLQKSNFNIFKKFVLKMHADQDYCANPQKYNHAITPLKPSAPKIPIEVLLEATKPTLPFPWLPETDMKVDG

Compound: OC[C@H]1O[C@H](O[C@H]2O[C@H](CO)[C@@H](O[C@H]3O[C@H](CO)[C@@H](O[C@H]4O[C@H](CO)[C@@H](O[C@H]5O[C@H](CO)[C@@H](O)[C@H](O)[C@H]5O)[C@H](O)[C@H]4O)[C@H](O)[C@H]3O)[C@H](O)[C@H]2O)[C@H](O)[C@@H](O)[C@@H]1O [P III, α-maltotriosyl trehalose]
Saccharide composition of hydrolysate with α-glucosidase: Glucose [1]: 61.7% | Saccharide composition of hydrolysate with α-glucosidase: Other saccharides [1]: 0.2% | Saccharide composition of hydrolysate with α-glucosidase: Trehalose [1]: 38.1% | Death of mice [2]: no mouse died | Glucose (glucoamylase): 61.4% | Trehalose (glucoamylase): 38.6% | Molecular ratio (Glucose/Trehalose) (glucoamylase): 3.02 | Hydrolysis by β-amylase (β-amylase): one mole of maltose and one mole of P I | DE [3]: 0.10 | Hydrolysis by α-amylase [4]: hydrolyzed by α-amylase into lower molecular weight oligosaccharides | Saccharide composition of hydrolysate: G1 (glucose) [4]: 1.2 | Saccharide composition of hydrolysate: G2 (maltose) [4]: 33.0 | Saccharide composition of hydrolysate: G3 (maltotriose) [4]: 0 | Saccharide composition of hydrolysate: P I [4]: 61.0 | Saccharide composition of hydrolysate: P II [4]: 4.8 | Coloration degree (480 nm) [5]: 0.012 | Coloration degree relative to corresponding material maltooligosaccharide [5]: 3-6% | Saccharide composition of hydrolysate with rat intestinal acetone powder: Glucose [6]: 62.0% | Saccharide composition of hydrolysate with rat intestinal acetone powder: Other saccharides [6]: 0.4% | Saccharide composition of hydrolysate with rat intestinal acetone powder: Trehalose [6]: 37.6%

Percentage of newly-formed saccharide (P I to P V) in reaction product [7]: 93.5% | Percentage of remaining substrate in reaction product [7]: 6.5% | Coloration degree (480 nm) [5]: 0.318
Compound: OC[C@H]1O[C@H](O[C@H]2[C@H](O)[C@@H](O)[C@@H](O[C@H]3[C@H](O)[C@@H](O)[C@@H](O[C@H]4[C@H](O)[C@@H](O)[C@@H](O[C@H]5[C@H](O)[C@@H](O)[C@@H](O[C@H]6[C@H](O)[C@@H](O)C(O)O[C@@H]6CO)O[C@@H]5CO)O[C@@H]4CO)O[C@@H]3CO)O[C@@H]2CO)[C@H](O)[C@@H](O)[C@@H]1O (some centres unmarked) [Maltohexaose]

Percentage of newly-formed saccharide (P I to P V) in reaction product [7]: 35.0% | Percentage of remaining substrate in reaction product [7]: 65.0% | Coloration degree (480 nm) [5]: 0.623
Compound: OC[C@H]1O[C@H](O[C@H]2[C@H](O)[C@@H](O)[C@@H](O[C@H]3[C@H](O)[C@@H](O)C(O)O[C@@H]3CO)O[C@@H]2CO)[C@H](O)[C@@H](O)[C@@H]1O (some centres unmarked) [Maltotriose]

Percentage of newly-formed saccharide (P I to P V) in reaction product [7]: 85.6% | Percentage of remaining substrate in reaction product [7]: 14.4% | Coloration degree (480 nm) [5]: 0.475
Compound: OC[C@H]1O[C@H](O[C@H]2[C@H](O)[C@@H](O)[C@@H](O[C@H]3[C@H](O)[C@@H](O)[C@@H](O[C@H]4[C@H](O)[C@@H](O)C(O)O[C@@H]4CO)O[C@@H]3CO)O[C@@H]2CO)[C@H](O)[C@@H](O)[C@@H]1O (some centres unmarked) [Maltotetraose]

Formation of novel saccharide from substrate [7]: no novel saccharide was formed | Percentage of remaining substrate in reaction product [7]: 100.0%
Compound: OC[C@H]1OC(O)[C@H](O)[C@@H](O)[C@@H]1O (some centres unmarked) [Glucose]

Percentage of newly-formed saccharide (P I to P V) in reaction product [7]: 93.4% | Percentage of remaining substrate in reaction product [7]: 6.7% | Coloration degree (480 nm) [5]: 0.271
Compound: OC[C@H]1O[C@H](O[C@H]2[C@H](O)[C@@H](O)[C@@H](O[C@H]3[C@H](O)[C@@H](O)[C@@H](O[C@H]4[C@H](O)[C@@H](O)[C@@H](O[C@H]5[C@H](O)[C@@H](O)[C@@H](O[C@H]6[C@H](O)[C@@H](O)[C@@H](O[C@H]7[C@H](O)[C@@H](O)C(O)O[C@@H]7CO)O[C@@H]6CO)O[C@@H]5CO)O[C@@H]4CO)O[C@@H]3CO)O[C@@H]2CO)[C@H](O)[C@@H](O)[C@@H]1O (some centres unmarked) [Maltoheptaose]

Compound: OC[C@H]1O[C@H](O[C@H]2O[C@H](CO)[C@@H](O[C@H]3O[C@H](CO)[C@@H](O[C@H]4O[C@H](CO)[C@@H](O[C@H]5O[C@H](CO)[C@@H](O[C@H]6O[C@H](CO)[C@@H](O)[C@H](O)[C@H]6O)[C@H](O)[C@H]5O)[C@H](O)[C@H]4O)[C@H](O)[C@H]3O)[C@H](O)[C@H]2O)[C@H](O)[C@@H](O)[C@@H]1O [P IV, α-maltotetraosyl trehalose]
Saccharide composition of hydrolysate with α-glucosidase: Glucose [1]: 69.5% | Saccharide composition of hydrolysate with α-glucosidase: Other saccharides [1]: 0.3% | Saccharide composition of hydrolysate with α-glucosidase: Trehalose [1]: 30.2% | LD50 ([2]; mouse, in vivo, po): ≥ 50000 mg/kg | Death of mice [2]: no mouse died | Glucose (glucoamylase): 68.3% | Trehalose (glucoamylase): 31.7% | Molecular ratio (Glucose/Trehalose) (glucoamylase): 4.09 | Hydrolysis by β-amylase (β-amylase): one mole of maltose and one mole of P II | DE [3]: 0.27 | Hydrolysis by α-amylase [4]: hydrolyzed by α-amylase into lower molecular weight oligosaccharides | Saccharide composition of hydrolysate: G1 (glucose) [4]: 1.6 | Saccharide composition of hydrolysate: G2 (maltose) [4]: 7.5 | Saccharide composition of hydrolysate: G3 (maltotriose) [4]: 40.4 | Saccharide composition of hydrolysate: P I [4]: 47.2 | Saccharide composition of hydrolysate: P II [4]: 3.3 | Coloration degree (480 nm) [5]: 0.016 | Coloration degree relative to corresponding material maltooligosaccharide [5]: 3-6% | Saccharide composition of hydrolysate with rat intestinal acetone powder: Glucose [6]: 68.8% | Saccharide composition of hydrolysate with rat intestinal acetone powder: Other saccharides [6]: 0.4% | Saccharide composition of hydrolysate with rat intestinal acetone powder: Trehalose [6]: 30.8%

Formation of novel saccharide from substrate [7]: no novel saccharide was formed | Percentage of remaining substrate in reaction product [7]: 100.0%
Compound: OC[C@H]1O[C@H](O[C@H]2[C@H](O)[C@@H](O)C(O)O[C@@H]2CO)[C@H](O)[C@@H](O)[C@@H]1O (mixture of isomers) [Maltose]

Percentage of newly-formed saccharide (P I to P V) in reaction product [7]: 92.7% | Percentage of remaining substrate in reaction product [7]: 7.3% | Initial reducing power that diminishes by the enzymatic reaction ([7]; substrate of the present enzyme): about 93% | Coloration degree (480 nm) [5]: 0.369
Compound: OC[C@H]1O[C@H](O[C@H]2[C@H](O)[C@@H](O)[C@@H](O[C@H]3[C@H](O)[C@@H](O)[C@@H](O[C@H]4[C@H](O)[C@@H](O)[C@@H](O[C@H]5[C@H](O)[C@@H](O)C(O)O[C@@H]5CO)O[C@@H]4CO)O[C@@H]3CO)O[C@@H]2CO)[C@H](O)[C@@H](O)[C@@H]1O (some centres unmarked) [Maltopentaose]

Compound: OC[C@H]1O[C@H](O[C@H]2O[C@H](CO)[C@@H](O[C@H]3O[C@H](CO)[C@@H](O[C@H]4O[C@H](CO)[C@@H](O[C@H]5O[C@H](CO)[C@@H](O)[C@H](O)[C@H]5O)[C@H](O)[C@H]4O)[C@H](O)[C@H]3O)[C@H](O)[C@H]2O)[C@H](O)[C@@H](O)[C@@H]1O [Example A-5]
DE of product ([3]; products of Examples A): lower than 0.2
